Source: publication PMC8113459, “Selective inhibition of cullin 3 neddylation through covalent targeting DCN1 protects mice from acetaminophen-induced liver toxicity” (Nature Communications, 2021)
pEC50: −log10 of the molar value. Values joined by “and” are separate entries in the source; they are usually repeats but may differ in a detail not shown here. Equal entries are not always repeated. Blank lines part the entries; values can stand above or below the molecule they belong to.

Experiments:
DCN1 = DCN1 (Homo sapiens, UniProt Q96GG9); assay: Intact-protein mass spectrometric analysis of covalent complex formation, Method A; format: binding; settings: for Percentage of the formation of covalent complex with DCN1 protein: 37 °C
Description: MassHunter Qualitative Analysis software (Agilent) was used to analyze the data. Intact protein masses were obtained using the maximum entropy deconvolution algorithm. The mass spectrometry data in Supplementary Figs. 1–11 were generated by Method A.

neddylation of cullin 3 [1] = assay: Western blot, cullin 3 neddylation in cells of different tissue types (U2OS, THLE2, MDA-MB-231, KYSE70, HCT116); format: cell-based, human
Protocol: (§1) Western blotting was performed as described previously. Treated cells were lysed by RIPA buffer supplemented with protease inhibitor. The expression level of indicated proteins was examined by immunoblotting analysis and GAPDH was used as the loading control. Antibodies were purchased commercially: cullin 1 (sc-17775, 1:500 dilution) and cullin 2 (sc-166506, 1:500 dilution) from Santa Cruz Biotech (Santa Cruz, CA); cullin 4A (PA5-14542, 1:1000 dilution), cullin 4B (PA5-50647, 1:1000 dilution), and DCN3 (DCUN1D3, PA5-44000, 1:1000 dilution) from Thermo Fisher Scientific (Wayne, MI); cullin 3 (2759, 1:1000), NRF2 (12721, 1:1000 dilution), HO-1 (70081, 1:1000 dilution), and Bim (2819, 1:1000 dilution) from Cell Signaling Technology (Boston, MA); DCN1 (GWB-E3D700, 1:1000 dilution) from GenWay Biotech (San Diego, CA); and cullin 5 (A302-173A, 1:500 dilution) from Bethyl Labs (Montgomery, TX). Results are representative of two independent experiments.

MDA-MB-231 cells = assay: Cell viability assay (WST-8), MDA-MB-231; format: cell-based, human; settings: for cell viability relative to control: replicates
Protocol: (§2) Cell viability assay was performed as previously described. The effect of DCN1 inhibitors on cell growth was evaluated by a WST-8 [2-(2-methoxy-4-nitrophenyl)-3-(4-nitrophenyl)-5-(2,4-disulfophenyl)-2H-tetrazolium, monosodium salt assay (Dojindo Molecular Technologies, Inc). Cells (2000–3000 cells in each well) were seeded in 96-well tissue culture plates in medium (100 μL) and treated with serial dilution of DCN1 inhibitors for 3 days. At the end of incubation, WST-8 dye (20 μL) was added to each well and incubated for 1–3 h, then the absorbance was measured in a microplate reader (Molecular Devices) at 450 nm. Cell growth inhibition was evaluated as the ratio of the absorbance of the sample to that of the control. The values were inserted into Prism software, and the curves and the EC50 values were produced by Prism software.

[2] = Cell viability assay (WST-8), MDA-MB-231; format: cell-based, human; settings: human, MDA-MB-231 cells, replicates, read-out: cell viability relative to control
Protocol: as §2

U2OS cells = assay: Cell viability assay (WST-8), U2OS; format: cell-based, human; settings: for cell viability relative to control: replicates
Protocol: as §2

[3] = Cell viability assay (WST-8), HCT116; format: cell-based, human; settings: human, HCT116 cells, replicates, read-out: cell viability relative to control
Protocol: as §2

HCT116 cells = assay: Cell viability assay (WST-8), HCT116; format: cell-based, human; settings: for cell viability relative to control: replicates
Protocol: as §2

neddylation of cullin 3 [4] = assay: Western blot, cullin 3 neddylation in U2OS cells; format: cell-based, human; settings: 24 h, Fig. 1c
Protocol: as §1

[5] = system: APAP-induced liver injury; assay: APAP-induced liver injury: alanine aminotransferase (ALT) level; format: in vivo, mouse; settings: single dose 400 mg/kg, IP
Protocol: (§3) The in vivo studies were performed under animal protocols (PRO00007499) and (PRO00006638) approved by the Institutional Animal Care & Use Committee of the University of Michigan, in accordance with the recommendations in the Guide for the Care and Use of Laboratory Animals of the National Institutes of Health. C57BL/6 WT mice (~8 weeks, male, normal chow) were purchased from the Jackson Laboratory and randomly divided into eight groups (8–9 mice per group) treated (IP) as follows: phosphate-buffered saline vehicle once per day for 3 days (G1), APAP alone a single dose at 400 mg/kg on day 1 (G2), DI-1859 alone 25 mg/kg once per day for 3 days (G3), DI-1859 alone 50 mg/kg once per day for 3 days (G4), pretreatment (1 day before the APAP administration) with DI-1859 at 25 mg/kg once per day for 3 days followed with APAP at 400 mg/kg on day (G5), pretreatment (1 day before the APAP administration) with DI-1859 at 50 mg/kg once per day for 3 days followed with APAP at 400 mg/kg on day (G6), APAP a single dose at 400 mg/kg (3 h before the first DI-1859 administration) followed with DI-1859 at 25 mg/Kg once per day for 3 days (G7), and APAP a single dose at 400 mg/kg (3 h before the first DI-1859 administration) followed with DI-1859 at 50 mg/Kg once per day for 3 days (G8).
(§4) To induce acute liver injury, animals received PBS or APAP (400 mg/kg, sigma, A7085) through I.P. injection at 12 p.m. and were sacrificed 48 h afterward. To examine the protective effect of DI-1859 (groups 5 and 6), animals were I.P. injected with compound for 3 consecutive days (9 a.m. on each day, starting 1 day before APAP administration). To examine the restorative effect of DI-1859 (groups 7 and 8), animals were I.P. injected with compound 3 h after APAP administration followed by two additional treatments (9 a.m. on the next 2 days). Body weight and blood glucose level measurement, along with blood sample collection, were performed at 12 p.m. on each day.
Blood glucose levels were determined using glucometers (Bayer Corp., Pittsburgh, PA). Plasma ALT activity was measured using an ALT reagent set (Pointe Scientific Inc., Canton, MI).

[6] = system: APAP-induced liver injury; assay: APAP-induced liver injury: ROS assay in liver tissue; format: in vivo, mouse; settings: G2: APAP 400 mg/kg, a single dose
Protocol: as §3, §4
Liver samples were homogenized in a lysis buffer and mixed with a dichlorofluorescein diacetate fluorescent probe (DCF, Sigma, D6883) to a final probe concentration of 5 µM for 1 h at 37 °C. DCF fluorescence was measured using a BioTek Synergy 2 Multi-Mode Microplate Reader (485 nm excitation and 527 nm emission).

NRF2 protein = assay: Western blot, NRF2 protein accumulation in cells; format: cell-based, human; settings: 100 nM
Protocol: as §1

[7] = 10 min incubation, 1.2-fold excess inhibitor

Sequence of DCN1 (Q96GG9 58-259 limits assumed): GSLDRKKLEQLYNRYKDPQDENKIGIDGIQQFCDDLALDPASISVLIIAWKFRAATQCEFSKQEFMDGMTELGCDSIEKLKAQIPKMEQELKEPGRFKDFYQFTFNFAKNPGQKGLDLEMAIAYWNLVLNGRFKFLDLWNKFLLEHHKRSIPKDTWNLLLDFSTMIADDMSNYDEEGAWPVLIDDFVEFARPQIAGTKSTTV

SMILES: CCC(=O)N[C@@H](Cc1nc2ccc(C(C)C)cc2s1)C(=O)N[C@H](CNC(=O)/C=C/CN(C)C)C1CCCCC1 [compound 5]
- covalent complex formation / reaction kinetics with DCN1 protein (in words) (DCN1): reaction kinetics similar to that of 3
- Percentage of the formation of covalent complex with DCN1 protein (DCN1; [7]): 0%
- Percentage of the formation of covalent complex with DCN1 protein (DCN1; 60 min (1 h) incubation): 0%
- Percentage of the formation of covalent complex with DCN1 protein (DCN1; 180 min (3 h) incubation): 2%
- Percentage of the formation of covalent complex with DCN1 protein (DCN1; 720 min (12 h) incubation): 30%

SMILES: CCC(=O)N[C@@H](Cc1nc2ccc(C(C)C)cc2s1)C(=O)N[C@H](CNC(=O)CCN1CCOCC1)C1CCCCC1 [DI-591]
- pEC50 (MDA-MB-231 cells; Homo sapiens, MDA-MB-231, 72 h, read-out: EC50, cell growth inhibition): < 6.00
- cell viability relative to control (MDA-MB-231 cells; conc 10, 72 h): 101.954 and 101.609
- cell viability relative to control (MDA-MB-231 cells; conc 30, 72 h): 108.276 and 97.3563
- cell viability relative to control (MDA-MB-231 cells; conc 100, 72 h): 100.345 and 97.5862
- cell viability relative to control (MDA-MB-231 cells; conc 300, 72 h): 105.517 and 106.667
- cell viability relative to control (MDA-MB-231 cells; conc 1000, 72 h): 102.644
- viability at 72 h ([2]; conc 10, 72 h): 94.3%
- viability at 72 h ([2]; conc 30, 72 h): 113%
- viability at 72 h ([2]; conc 100, 72 h): 109%
- viability at 72 h ([2]; conc 300, 72 h): 105%
- viability at 72 h ([2]; conc 1000, 72 h): 94.9%
- pEC50 (U2OS cells; Homo sapiens, U2OS, 72 h, read-out: EC50, cell growth inhibition): < 6.00
- cell viability relative to control (U2OS cells; conc 10, 72 h): 113.521 and 92.8169 and 93.8028
- cell viability relative to control (U2OS cells; conc 30, 72 h): 110.282 and 96.9014 and 89.8591
- cell viability relative to control (U2OS cells; conc 100, 72 h): 112.958 and 95.2113 and 89.4366
- cell viability relative to control (U2OS cells; conc 300, 72 h): 115.211 and 91.5493 and 99.0141
- cell viability relative to control (U2OS cells; conc 1000, 72 h): 84.9296 and 111.127 and 85.7746
- viability at 72 h ([3]; conc 3, 72 h): 106%
- viability at 72 h ([3]; conc 10, 72 h): 94.3%
- viability at 72 h ([3]; conc 30, 72 h): 90%
- viability at 72 h ([3]; conc 1000, 72 h): 94.3%
- pEC50 (HCT116 cells; Homo sapiens, HCT-116, 72 h, read-out: EC50, cell growth inhibition): < 6.00
- cell viability relative to control (HCT116 cells; conc 3, 72 h): 106.068 and 106.647
- cell viability relative to control (HCT116 cells; conc 10, 72 h): 94.7863 and 106.766
- cell viability relative to control (HCT116 cells; conc 30, 72 h): 103.675 and 96.2874
- cell viability relative to control (HCT116 cells; conc 100, 72 h): 92.6577 and 103.333 and 79.1617
- cell viability relative to control (HCT116 cells; conc 300, 72 h): 90.9009 and 107.521 and 85.6886
- cell viability relative to control (HCT116 cells; conc 1000, 72 h): 100.085 and 92.0359

SMILES: CC(=O)Nc1ccc(O)cc1 [APAP, acetaminophen]
- hepatotoxicity in mice [5]: induced severe hepatotoxicity
- ROS level in mouse liver tissue, mean [6]: 12.4435 A.U./ug
- ROS level normalised to the mean of G1 (vehicle), mean [6]: 1.645

SMILES: C=C(CN(C)C)C(=O)NC[C@H](NC(=O)[C@@H](Cc1nc2ccc(C(C)C)cc2s1)NC(=O)CC)C1CCCCC1 [DI-1859DD]
- accumulation of NRF2 protein (NRF2 protein): no obvious accumulation
- times less potent than DI-1548 and DI-1859, respectively, on cullin 3 neddylation (neddylation of cullin 3 [1]): > 300 times
- effect on the neddylation of cullin 3 (neddylation of cullin 3 [1]; 100–300 nM): no significant effect

Second part, led by results:

- Percentage of the formation of covalent complex with DCN1 protein (DCN1; [7]): 80%
- Percentage of the formation of covalent complex with DCN1 protein (DCN1; 60 min (1 h) incubation): 100%
- Percentage of the formation of covalent complex with DCN1 protein (DCN1; 180 min (3 h) incubation): 100%
- Percentage of the formation of covalent complex with DCN1 protein (DCN1; 720 min (12 h) incubation): 100%
SMILES: C=C(Cn1ccnc1)C(=O)NC[C@@H](NC(=O)[C@H](Cc1nc2ccc(C(C)C)cc2s1)NC(=O)CC)C1CCCCC1 [compound 10]
- covalent complex formation / reaction kinetics with DCN1 protein (in words) (DCN1): slower reaction kinetics with DCN1 than DI-1548 and DI-1859
- potency in inhibition of cullin 3 neddylation compared with DI-1548 (neddylation of cullin 3 [1]; in cell, Supplementary Fig. 12): ten times less potent than DI-1548

- Percentage of the formation of covalent complex with DCN1 protein (DCN1; 60 min (1 h) incubation): 30%
- Percentage of the formation of covalent complex with DCN1 protein (DCN1; 180 min (3 h) incubation): 50%
- Percentage of the formation of covalent complex with DCN1 protein (DCN1; 720 min (12 h) incubation): 100%
SMILES: C=C(CCN(C)C)C(=O)NC[C@@H](NC(=O)[C@H](Cc1nc2ccc(C(C)C)cc2s1)NC(=O)CC)C1CCCCC1 [compound 9]
- covalent complex formation / reaction kinetics with DCN1 protein (in words) (DCN1): much slower reaction kinetics than 6 and 7
- potency in inhibition of cullin 3 neddylation compared with DI-591 (neddylation of cullin 3 [4]): much more potent than DI-591

- Percentage of the formation of covalent complex with DCN1 protein (DCN1; 60 min (1 h) incubation): 15%
- Percentage of the formation of covalent complex with DCN1 protein (DCN1; 720 min (12 h) incubation): 100%
SMILES: C=C(CCN1CCOCC1)C(=O)NC[C@@H](NC(=O)[C@H](Cc1nc2ccc(C(C)C)cc2s1)NC(=O)CC)C1CCCCC1 [compound 8]
- covalent complex formation / reaction kinetics with DCN1 protein (in words) (DCN1): much slower reaction kinetics than 6 and 7
- potency in inhibition of cullin 3 neddylation compared with DI-591 (neddylation of cullin 3 [4]): much more potent than DI-591
